This assay concerns soybean (Glycine max). Description: Test A1 preemergence, soybean. The class given is in vivo. The method in brief: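 Test compounds were formulated in a non-phytotoxic solvent mixture containing a surfactant. For preemergence, seeds sown in a loam soil–sand blend received a directed soil spray. For postemergence, potted plants in the same soil, 2 to 10 cm tall at the one- to two-leaf stage, were sprayed.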

[1] abbreviates: 31 g ai/ha, 0 to 100 scale (0 no effect, 100 complete control).
[2] abbreviates: 125 g ai/ha, 0 to 100 scale, 0 no effect, 100 complete control.

`Cc1c(C(=O)N2CCOCC2)cc(N(COC(=O)C(C)(C)C)S(=O)(=O)C(F)(F)F)c(C)c1C` [Compound 324, [[(Trifluoromethyl)sulfonyl][2,3,4-trimethyl-5-(4-morpholinylcarbonyl)phenyl]amino]methyl 2,2-dimethylpropanoate]: the “Plant response rating, Soybean” value is, setting by setting: under setting [1], 20; under setting [2], 60.

On to `CCOC(=O)N(c1cc(C(=O)N2CCOCC2)c(C)c(C)c1C)S(=O)(=O)C(F)(F)F` [Compound 325], for which the “Plant response rating, Soybean” value under setting [1] is on record as 0 and the “Plant response rating, Soybean” value under setting [2] is reported as 60.

On to `Cc1c(NS(=O)(=O)C(F)(F)F)cc(C(=O)N2CCCCC2)c(C)c1C` [Compound 326], for which the “Plant response rating, Soybean” value is, setting by setting: under setting [1], 40; under setting [2], 90.

As to `Cc1c(NS(=O)(=O)C(F)(F)F)cc(C(=O)N2CC(C)OC(C)C2)c(C)c1C` (centres unmarked) [Compound 327], the “Plant response rating, Soybean” value runs as follows: under setting [1], 30; under setting [2], 90.

As to `Cc1c(C(=O)N2CCCCC2)cc(N(COC(=O)C(C)(C)C)S(=O)(=O)C(F)(F)F)c(C)c1C` [Compound 329, [[(Trifluoromethyl)sulfonyl][2,3,4-trimethyl-5-(1-piperidinylcarbonyl)phenyl]amino]methyl 2,2-dimethylpropanoate], the “Plant response rating, Soybean” value by setting is: under setting [1], 0; under setting [2], 0.

For `Cc1c(C(=O)N2C[C@@H](C)O[C@@H](C)C2)cc(N(COC(=O)C(C)(C)C)S(=O)(=O)C(F)(F)F)c(C)c1C` [Compound 331], the “Plant response rating, Soybean” value turned out to be 0 under setting [1] and 10 under setting [2].

As for `CCOC(=O)N(c1cc(C(=O)N2C[C@@H](C)O[C@@H](C)C2)c(C)c(C)c1C)S(=O)(=O)C(F)(F)F` [Compound 332], the “Plant response rating, Soybean” value under setting [1] stood at 20 and the “Plant response rating, Soybean” value under setting [2] is 70.

Consider `Cc1c(C(=O)N2CCCCC2)cc(NS(=O)(=O)C(F)(F)F)c(Cl)c1F` [Compound 333], for which the “Plant response rating, Soybean” value under setting [1] amounted to 40 and the “Plant response rating, Soybean” value under setting [2] worked out at 60.

As for `COC1CCCN(C(=O)c2cc(NS(=O)(=O)C(F)(F)F)c(Cl)c(F)c2C)C1` (centres unmarked) [Compound 334], the “Plant response rating, Soybean” value was 0 under setting [1] and 30 under setting [2].

For `Cc1c(NS(=O)(=O)C(F)(F)F)cc(C2=NOC3CCCC23)c(C)c1C` (centres unmarked) [Compound 335], the “Plant response rating, Soybean” value runs as follows: under setting [1], 30; under setting [2], 40.

`COCC1CC(c2cc(N(COC(=O)C(C)(C)C)S(=O)(=O)C(F)(F)F)c(C)cc2C)=NO1` (centres unmarked) [Compound 338]: the “Plant response rating, Soybean” value amounted to 0 under setting [1] and 20 under setting [2].

For the compound `CCOC1CC(c2cc(N(COC(=O)C(C)(C)C)S(=O)(=O)C(F)(F)F)c(C)cc2C)=NO1` (centres unmarked) [Compound 339], the “Plant response rating, Soybean” value under setting [1] is reported as 0 and the “Plant response rating, Soybean” value under setting [2] stood at 0.

Consider `Cc1cc(C)c(C2=NOC3(C)CCCC23)cc1NS(=O)(=O)C(F)(F)F` (centres unmarked) [Compound 340], for which the “Plant response rating, Soybean” value is, setting by setting: under setting [1], 40; under setting [2], 90.

For the compound `Cc1cc(C)c(N(COC(=O)C(C)(C)C)S(=O)(=O)C(F)(F)F)cc1C1=NOC2(C)CCCC12` (centres unmarked) [Compound 341], the “Plant response rating, Soybean” value is reported as 0 under setting [1] and 0 under setting [2].

On to `CCC1ON=C(c2cc(NS(=O)(=O)C(F)(F)F)c(C)cc2C)C1CC` (centres unmarked) [Compound 343], for which the “Plant response rating, Soybean” value reads like this: under setting [1], 50; under setting [2], 60.

Take `CCC1ON=C(c2cc(N(COC(=O)C(C)(C)C)S(=O)(=O)C(F)(F)F)c(C)cc2C)C1CC` (centres unmarked) [Compound 344]: the “Plant response rating, Soybean” value runs as follows: under setting [1], 50; under setting [2], 50.

Take `CCC1ON=C(c2cc(N(C(=O)OCC(C)C)S(=O)(=O)C(F)(F)F)c(C)cc2C)C1CC` (centres unmarked) [Compound 345]: the “Plant response rating, Soybean” value reads like this: under setting [1], 0; under setting [2], 0.

In the case of `CCC1ON=C(c2cc(N(C(=O)OCC(C)C)S(=O)(=O)C(F)(F)F)c(C)cc2C)C1CC` (centres unmarked) [Compound 348], the “Plant response rating, Soybean” value runs as follows: under setting [1], 30; under setting [2], 40.

As to `Cc1cc(C)c(C2=NOC3OCCC23)cc1NS(=O)(=O)C(F)(F)F` (centres unmarked) [Compound 349], the “Plant response rating, Soybean” value is listed as 20 under setting [1] and 60 under setting [2].

`Cc1cc(C)c(N(COC(=O)C(C)(C)C)S(=O)(=O)C(F)(F)F)cc1C(=O)N1CCC(F)(F)CC1` [Compound 350]: the “Plant response rating, Soybean” value reads like this: under setting [1], 0; under setting [2], 0.

On to `CCOC(=O)N(c1cc(C(=O)N2CCC(F)(F)CC2)c(C)cc1C)S(=O)(=O)C(F)(F)F` [Compound 351], for which the “Plant response rating, Soybean” value under setting [1] was 20 and the “Plant response rating, Soybean” value under setting [2] is given as 30.

`Cc1cc(C)c(N(COC(=O)C(C)(C)C)S(=O)(=O)C(F)(F)F)cc1C1=NOC2OCCC12` (centres unmarked) [Compound 352]: the “Plant response rating, Soybean” value under setting [1] was determined as 30 and the “Plant response rating, Soybean” value under setting [2] was found to be 40.

Consider `Cc1cc(C)c(N(COC(=O)C(C)(C)C)S(=O)(=O)C(F)(F)F)cc1C(=O)N1CCC(C)CC1` [Compound 353], for which the “Plant response rating, Soybean” value by setting is: under setting [1], 10; under setting [2], 30.

Turning to `CCOC(=O)N(c1cc(C(=O)N2CCC(C)CC2)c(C)cc1C)S(=O)(=O)C(F)(F)F` [Compound 354], the “Plant response rating, Soybean” value is, setting by setting: under setting [1], 30; under setting [2], 70.

For the compound `Cc1cc(C2CC2)c(C2=NOC3CCCC23)cc1N(COC(=O)C(C)(C)C)S(=O)(=O)C(F)(F)F` (centres unmarked) [Compound 355], the “Plant response rating, Soybean” value stood at 20 under setting [1] and 30 under setting [2].

For `Cc1c(NS(=O)(=O)C(F)(F)F)cc(C(=O)N2CCC(Cl)CC2)c(C)c1C` [Compound 356], the “Plant response rating, Soybean” value amounted to 0 under setting [1] and 80 under setting [2].

`Cc1c(NS(=O)(=O)C(F)(F)F)cc(C(=O)N2CCC(F)(F)CC2)c(C)c1C` [Compound 357]: the “Plant response rating, Soybean” value reads like this: under setting [1], 0; under setting [2], 20.

With `Cc1c(NS(=O)(=O)C(F)(F)F)cc(C(=O)N2CCC(F)CC2)c(C)c1C` [Compound 358], the “Plant response rating, Soybean” value is 50 under setting [1] and 70 under setting [2].

Take `Cc1c(C(=O)N2CCC(Cl)CC2)cc(N(COC(=O)C(C)(C)C)S(=O)(=O)C(F)(F)F)c(C)c1C` [Compound 359]: the “Plant response rating, Soybean” value is, setting by setting: under setting [1], 0; under setting [2], 30.

As for `Cc1c(C(=O)N2CCC(F)(F)CC2)cc(N(COC(=O)C(C)(C)C)S(=O)(=O)C(F)(F)F)c(C)c1C` [Compound 360], the “Plant response rating, Soybean” value under setting [1] is 0 and the “Plant response rating, Soybean” value under setting [2] is listed as 0.

On to `Cc1cc(C)c(N(COC(=O)C(C)(C)C)S(=O)(=O)C(F)(F)F)cc1C(=O)N1CCOCC1` [Compound 362], for which the “Plant response rating, Soybean” value is, setting by setting: under setting [1], 10; under setting [2], 40.

With `CCOC(=O)N(c1cc(C(=O)N2CCOCC2)c(C)cc1C)S(=O)(=O)C(F)(F)F` [Compound 363], the “Plant response rating, Soybean” value reads like this: under setting [1], 10; under setting [2], 30.

For `Cc1cc(C)c(N(COC(=O)C(C)(C)C)S(=O)(=O)C(F)(F)F)cc1C(=O)N1CCC(c2ccccc2)CC1` [Compound 364], the “Plant response rating, Soybean” value under setting [1] came to 0 and the “Plant response rating, Soybean” value under setting [2] stood at 0.

For the compound `CCOC(=O)N(c1cc(C(=O)N2CCC(c3ccccc3)CC2)c(C)cc1C)S(=O)(=O)C(F)(F)F` [Compound 365], the “Plant response rating, Soybean” value reads like this: under setting [1], 0; under setting [2], 0.

In the case of `Cc1c(NS(=O)(=O)C(F)(F)F)cc(C(=O)N2CCC(C)CC2)c(C)c1C` [Compound 366], the “Plant response rating, Soybean” value reads like this: under setting [1], 0; under setting [2], 50.

For `COC1CCN(C(=O)c2cc(NS(=O)(=O)C(F)(F)F)c(C)c(C)c2C)CC1` [Compound 367], the “Plant response rating, Soybean” value worked out at 0 under setting [1] and 90 under setting [2].

In the case of `CCC1CC(c2cc(N(COC(=O)C(C)(C)C)S(=O)(=O)C(F)(F)F)c(C)cc2C)=NO1` (centres unmarked) [Compound 376], the “Plant response rating, Soybean” value under setting [1] stood at 0 and the “Plant response rating, Soybean” value under setting [2] was 0.
